Laboratory results: ChEMBL document CHEMBL1155890, “Synthesis of scyllo-inositol derivatives and their effects on amyloid beta peptide aggregation” (Bioorg Med Chem, 2008)
Active and inactive are the calls of the source. The rule behind the calls is not given here.

test: Effect on amyloid beta 42 aggregation assessed as inhibition of fiber formation at 3 mM

Compound | Activity
O[C@H]1[C@H](O)[C@@H](O)[C@H](O)[C@@H](O)[C@@H]1O | Active

test: Effect on amyloid beta 42 aggregation assessed as inhibition of fiber formation at 5 mM

Activity | Compound
inactive | O[C@@H]1[C@@H](O)[C@H](Cl)[C@@H](O)[C@H](O)[C@H]1Cl
inactive | O[C@@H]1[C@@H](O)[C@H](O)[C@@H](Cl)[C@H](O)[C@H]1O
inactive | CO[C@H]1[C@H](O)[C@@H](O)[C@H](O)[C@@H](O)[C@@H]1O

The remaining lines, values behind:

Compound | Activity
O[C@@H]1[C@@H](O)[C@H](F)[C@@H](O)[C@H](O)[C@H]1F | inactive
O[C@@H]1C[C@H](O)[C@@H](O)C[C@H]1O | inactive
O[C@@H]1[C@@H](O)[C@H](O)C[C@H](O)[C@H]1O | inactive
